Laboratory results reported in patent US8835428B2, “Diacylglycerol acyltransferase inhibitors” (Piramal Enterprises Limited, priority 2008, dated 2014).

Target: T1, hDGAT1 (Homo sapiens, UniProt O75907)
T1 construct: host or cells: Sf9 insect cells (baculovirus); microsomal preparation
T1 sequence (O75907 1-488): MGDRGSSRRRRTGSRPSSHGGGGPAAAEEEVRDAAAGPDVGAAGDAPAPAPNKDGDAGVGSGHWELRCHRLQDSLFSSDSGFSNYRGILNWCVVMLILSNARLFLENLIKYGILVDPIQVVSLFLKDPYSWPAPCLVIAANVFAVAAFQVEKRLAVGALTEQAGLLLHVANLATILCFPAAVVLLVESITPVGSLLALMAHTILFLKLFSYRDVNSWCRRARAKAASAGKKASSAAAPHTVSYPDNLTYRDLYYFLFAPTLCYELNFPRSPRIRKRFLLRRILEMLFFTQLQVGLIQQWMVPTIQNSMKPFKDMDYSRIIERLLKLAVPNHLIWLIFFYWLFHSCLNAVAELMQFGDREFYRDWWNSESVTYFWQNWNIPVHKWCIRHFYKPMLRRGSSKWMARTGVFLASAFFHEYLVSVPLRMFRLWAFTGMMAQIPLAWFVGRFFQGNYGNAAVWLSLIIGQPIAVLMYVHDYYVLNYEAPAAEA
Test: In-vitro DGAT1 assay (hDGAT1 microsomes from Sf9 cells, 14C oleoyl CoA, triglyceride formation)
Type: biochemical
Details: for inhibition at 10 µM / % inhibition of hDGAT1: At 10 μM
Protocol: In-vitro Protocol for DGAT1 Assay
Sf9 Culture and Treatment
Sf9 cells were grown in T25 flasks containing Graces's Insect media with 10% FBS with antibiotic (100 units/mL penicillin, 100 μg/mL streptomycin sulphate, 0.25 μg/mL Amptotericin B as Fungizone) grown in a 27° C. incubator:
hDGAT1ORF expression clone (RZPDo839C09146 in pDEST vector) was obtained from RZPD, Germany. hDGAT1 bacmid DNA was obtained by transformation of the hDGAT expression clone into DH10Bac E. coli competent cells. Approximately 1 μg of hDGAT1 bacmid DNA was infected into Sf9 cells with Cellfectin (Invitrogen) reagent. Following infection, Sf9 cells were incubated at 27° C. for 30 minutes. Five hours after infection, the media was replaced with growth media containing antibiotic (100 units/mL penicillin, 100 μg/mL streptomycin sulphate, 0.25 μg/mL Amptotericin B as Fungizone) and incubated at 27° C. for 72 hours. The supernatant containing the virus was centrifuged at 1500×g for 5 minutes, passed through 0.22 μm filter, and subsequently stored at 4° C. The virus was further amplified three more times by re-infection of Sf9 cells and the viral titer was determined by plaque assay.
Preparation of DGAT1 Microsomes from Sf9 Cells
Sf9 cells were seeded in spinner flasks on day 0 at a cell density of 1×10^6 and infected on day 1 with hDGAT1 baculovirus at a multiplicity of infection (MOI) of 5 and a cell density of 2×10^6. On day 3 (or 66-72 hours), cells were harvested and centrifuged at 2500×g for 10 minutes. Pellet was resuspended in lysis buffer (100 mM sucrose, 50 mM KCl, 40 mM KH2PO4, 30 mM EDTA, pH 7.2) and passed through 21-gauge needle approximately 10 times. The mixture was centrifuged at 12,000 rpm in a Sigma 12158-H rotor at 4° C. for 30 minutes. The supernatant was subjected to centrifugation at 35,000 rpm in a Beckman Ti-45 rotor at 4° C. for 1 hour. The resultant pellet containing the microsomes were resuspended overnight in 1 mL of lysis buffer and total protein concentration was estimated using Bradford Reagent. Microsomes were aliquoted and stored at −20° C.
Measurement of DGAT1 Activity
Frozen aliquots of hDGAT1 containing microsomes were thawed (5-10 mg/mL total protein) on ice and diluted to a working stock of 1 mg/mL with DGAT Assay Buffer (DAB). The DGAT reaction assay was performed by following the procedure described in U.S. Pat. No. 6,607,893 with some modifications that are described below.
Preparation of DGAT1 substrate mixture: 1 mL stock solution of DGAT1 substrate mixture contains (i) 5.6 μL of ^14C oleoyl CoA (16.8 nCi) and 35 μL 1,2-dioleoyl-sn-glycerol (409.5 μM) or (ii) 5.6 μL of ^14C oleoyl CoA (16.8 nCi) and 105 μL 1,2-dioleoyl-sn-glycerol (1228.5 μM) or (iii) 5.6 μL of ^14C oleoyl CoA (16.8 nCi) and 140 μL 1,2-dioleoyl-sn-glycerol (1638 μM).
1,2-sn-dioleoylglycerol substrate concentration in the 1 mL stock solution of DGAT1 substrate mixture was varied depending on the microsome concentration used in the assay reaction. 1,2-dioleoyl-sn-glycerol stock (19.5 mM) was prepared by dissolving 25 mg of 1,2-dioleoyl-sn-glycerol (Sigma, US) in 2060 μL of acetone. The assay was performed in duplicates in a reaction volume of 100 μL. The reaction volume consisted of: • (i) 27.5 μL of DGAT assay buffer (0.25M Sucrose, 1 mM EDTA (pH 8.0), 150 mM Tris-HCl, pH 7.4, 1.25 mg/mL, fatty acid free BSA), • (ii) 10 μL of compound, of present invention or standard (dissolved in DMSO and diluted to 10× with DAB and screened at 10 μM, 5 μM and 1 μM), • (iii) 60 μL DGAT1 substrate mixture taken from a 1 mL stock (16.8 nCi of ^14C oleoyl CoA and 409.5 μM or 1228.5 μM or 1638 μM of 1,2-dioleyl-sn-glycerol), • (iv) 2.5-10 μL of 1 mg/mL of microsomes (the amount of assay buffer was varied depending upon the concentration of microsome to make up the volume to 100 μL). Procedure:
The reaction was started by the addition of 2.5-10 μL of 1 mg/mL of microsomes (iv) to a mixture of (i), (ii) and (iii), vortexed and incubated at 37° C. for 10 minutes. […]

`O=C(O)[C@@H](NC(=NO)c1cc(-c2ccc(Nc3nc4ccc(F)cc4s3)cc2)no1)c1ccccc1` [Example 57, (S)-({3-[4-(6-Fluoro-benzothiazol-2-ylamino)-phenyl]-N-hydroxy-isoxazole-5-carboximidoyl}-amino)-phenyl-acetic acid] gave an inhibition at 10 µM of 0 to 50%.
For `CC(C)[C@H](NC(=O)c1cc(-c2ccc(NC(=O)Nc3cc(C(F)(F)F)ccc3Cl)cc2)no1)C(=O)O` [Example 211, (S)-2-(3-(4-(3-(2-chloro-5-(trifluoromethyl)phenyl)ureido)phenyl)isoxazole-5-carboxamido)-3-methylbutanoic acid], the inhibition at 1 µM was 75 to 100%.
`CC(C)C(NC(=O)c1cc(-c2ccc(OCc3ccccc3C(F)(F)F)cc2)no1)C(=O)O` (stereo not shown) [Example 330, 3-Methyl-2-(3-(4-(2-(trifluoromethyl)benzyloxy)phenyl)isoxazole-5-carboxamido)butanoic acid] was tested, and the inhibition at 1 µM was 0 to 50%.
`NC(=O)c1cc(-c2ccc(Nc3nc4ccc(F)cc4s3)cc2)no1` [Example 3, 3-[4-(6-Fluoro-benzothiazol-2-ylamino)-phenyl]-isoxazole-5-carboxylic acid amide] showed an inhibition at 10 µM of 0 to 50%.
Compound `COC(=O)[C@@H](NC(=O)c1cc(-c2ccc(NC(=O)Nc3ccc(F)cc3)cc2)no1)C(C)C` [Example 84, (S)-2-[(3-{4-[3-(4-Fluoro-phenyl}-ureido]-phenyl)-isoxazole-5-carbonyl)-amino]-3-methyl-butyric acid methyl ester] has an inhibition at 10 µM of 50 to 75%.
For `COC(=O)[C@@H](NC(=O)c1nc(-c2ccc(NC(=O)Nc3ccc(OC)cc3)cc2)no1)C(C)C` [Example 344, (S)-Methyl 2-(3-(4-(3-(4-methoxyphenyl)ureido)phenyl)-1,2,4-oxadiazole-5-carboxamido)-3-methylbutanoate], the inhibition at 5 µM was 0 to 50%.
Compound `CC(C)C(NC(=O)c1cc(-c2ccc(NC(=O)Nc3ccccc3-c3ccccc3)cc2)no1)C(=O)O` (stereo not shown) [Example 291, 2-(3-(4-(3-Biphenyl-2-ylureido)phenyl)isoxazole-5-carboxamido)-3-methylbutanoic acid] has an inhibition at 1 µM of 75 to 100%.
With `COC(=O)[C@@H](NC(=O)c1cc(-c2ccc(NC(=O)Nc3ccccc3)cc2)no1)C(C)C` [Example 76, (S)-3-Methyl-2-({3-[4-(3-phenyl-ureido)-phenyl]-isoxazole-5-carbonyl}-amino)-butyric acid methyl ester] the inhibition at 10 µM was 50 to 75%.
`CC(C)[C@H](NC(=O)c1cc(-c2ccc(NC(=O)Nc3ccc4c(c3)CCC4)cc2)no1)C(=O)O` [Example 181, (S)-2-(3-(4-(3-(2,3-dihydro-1H-inden-5-yl)ureido)phenyl)isoxazole-5-carboxamido)-3-methylbutanoic acid] showed an inhibition at 1 µM of 75 to 100%.
Compound `COC(=O)[C@@H](NC(=O)c1nc(-c2ccc(NC(=O)Nc3ccc(C)cc3)cc2)no1)C(C)C` [Example 346, (S)-Methyl 3-methyl-2-(3-(4-(3-p-tolylureido)phenyl)-1,2,4-oxadiazole-5-carboxamido)butanoate] has an inhibition at 5 µM of 50 to 75%.
`COC(=O)c1ccc(NC(=O)Nc2ccc(-c3cc(C(=O)NC(C(=O)OC)C(C)C)on3)cc2)cc1` (stereo not shown) [Example 283, Methyl 4-(3-(4-(5-(1-methoxy-3-methyl-1-oxobutan-2-ylcarbamoyl)isoxazol-3-yl)phenyl)ureido)benzoate] was tested, and the inhibition at 1 µM was 0 to 50%.
In the case of `Cc1ccc(NC(=O)Nc2ccc(-c3nc(C(=O)N[C@H](C(=O)O)C(C)C)cs3)cc2)cc1C` [Example 363, (S)-2-(2-(4-(3-(3,4-dimethylphenyl)ureido)phenyl)thiazole-4-carboxamido)-3-methylbutanoic acid], the inhibition at 1 µM is reported as 0 to 50%.
For `COC(=O)CNC(=S)c1cc(-c2ccc(Nc3nc4ccc(F)cc4s3)cc2)no1` [Example 60, ({3-[4-(6-fluoro-benzothiazol-2-ylamino)-phenyl]-isoxazole-5-carbothioyl}-amino)-acetic acid methyl ester], the inhibition at 10 µM was 0 to 50%.
With “7-{3-[4-(6-Fluoro-benzothiazol-2-ylamino)-phenyl]-isoxazole-5-yl}-9-oxa-6,8-diaza-spiro[4,5]dec-7-en-10-one [Example 67]” the “% inhibition of hDGAT1” value was “+++ (>75% Inhibition ≦100)”.
For `CC(C)[C@H](NC(=O)c1cc(-c2cccc(Nc3nc4ccc(F)cc4s3)c2)no1)C(=O)O` [Example 23, (S)-2-({3-[3-(6-Fluoro-benzothiazol-2-ylamino)-phenyl]-isoxazole-5-carbonyl}-amino)-3-methyl-butyric acid], the inhibition at 10 µM was 0 to 50%.
In the case of `O=C(Nc1ccc(-c2cc(C(=O)N3CCC[C@@H]3C(=O)O)on2)cc1)Nc1ccccc1F` [Example 260, (R)-1-(3-(4-(3-(2-Fluorophenyl)ureido)phenyl)isoxazole-5-carbonyl) pyrrolidine-2-carboxylic acid], the inhibition at 1 µM is reported as 50 to 75%.
`NC(=S)c1cc(-c2ccc(Nc3nc4ccc(F)cc4s3)cc2)no1` [Example 4, 3-[4-(6-Fluoro-benzothiazol-2-ylamino)-phenyl]-isoxazole-5-carbothioic acid amide] gave an inhibition at 10 µM of 0 to 50%.
`COC(=O)[C@@H](NC(=O)c1nc(-c2ccc(NS(=O)(=O)c3ccc(F)cc3F)cc2)no1)C(C)C` [Example 350, (S)-methyl 2-(3-(4-(2,4-difluorophenylsulfonamido)phenyl)-1,2,4-oxadiazole-5-carboxamido)-3-methylbutanoate] showed an inhibition at 5 µM of 0 to 50%.
For “(S)-({3-[4-(6-Fluoro-benzothiazol-2-ylamino)-phenyl]-isoxazole-5-carbothioyl}-amino)-phenyl-acetic acid [Example 55]”, the “% inhibition of hDGAT1” value was “++ (>50% Inhibition ≦75)”.
`CC(C)[C@@H](NC(=O)c1cc(-c2ccc(NS(=O)(=O)c3ccc(C(F)(F)F)cc3)cc2)no1)C(=O)O` [Example 319, (R)-3-methyl-2-(3-(4-(4-(trifluoromethyl)phenylsulfonamido)phenyl)isoxazole-5-carboxamido)butanoic acid] showed an inhibition at 1 µM of 0 to 50%.
`O=C(N[C@@H](CO)C(=O)O)c1cc(-c2ccc(Nc3nc4ccc(F)cc4s3)cc2)no1` [Example 10, (S)-2-({3-[4-(6-Fluoro-benzothiazol-2-ylamino)-phenyl]-isoxazole-5-carbonyl}-amino)-3-hydroxy-propionic acid] showed an inhibition at 10 µM of 50 to 75%.
Compound `CC(C)C(NC(=O)c1cc(-c2ccc(NC(=O)c3ccc(C(C)(C)C)cc3)cc2)no1)C(=O)O` (stereo not shown) [Example 297, 2-(3-(4-(4-tert-butylbenzamido)phenyl)isoxazole-5-carboxamido)-3-methylbutanoic acid] has an inhibition at 1 µM of 75 to 100%.
